Reference: the NIST ThermoML archive (doi:10.1016/j.fluid.2007.07.016)

Experiment: xn = mol fraction of the nth substance listed
Settings: 101 kPa, Liquid; for viscosity: Capillary tube (Ostwald / Ubbelohde) method; for speed of sound: Linear variable-path acoustic interferometer

Cc1ccccc1C [1,2-dimethylbenzene] + C1CCOC1
Settings	speed of sound, 288.15 K [m/s]	speed of sound, 298.15 K [m/s]	speed of sound, 308.15 K [m/s]	speed of sound, 318.15 K [m/s]	viscosity, 288.15 K [mPa·s]	viscosity, 298.15 K [mPa·s]	viscosity, 308.15 K [mPa·s]	viscosity, 318.15 K [mPa·s]
x2 = 0	1388.5	1350.3	1321.4	1285.8	0.8623	0.7576	0.669	0.5972
x2 = 0.0764	1384.3	1345.1	1314.5	1277.9	0.8385	0.738	0.6535	0.585
x2 = 0.1504	1380	1340	1307.8	1270.2	0.8155	0.7192	0.6384	0.573
x2 = 0.2243	1375.7	1335	1301.1	1262.7	0.7919	0.6998	0.6226	0.5602
x2 = 0.2942	1371.4	1330	1294.8	1255.6	0.769	0.6807	0.6067	0.5471
x2 = 0.366	1366.9	1324.9	1288.3	1248.4	0.7451	0.6606	0.59	0.5331
x2 = 0.4226	1363.4	1320.9	1283.2	1242.8	0.726	0.6445	0.5764	0.5216
x2 = 0.4801	1359.7	1316.7	1278	1237.1	0.7063	0.6277	0.5621	0.5094
x2 = 0.531	1356.3	1313	1273.4	1232.1	0.6888	0.6127	0.5493	0.4981
x2 = 0.585	1352.6	1309	1268.5	1226.8	0.6694	0.5959	0.5348	0.4856
x2 = 0.6578	1347.6	1303.6	1262	1219.7	0.6432	0.5731	0.515	0.4684
x2 = 0.7322	1342.5	1298	1255.4	1212.5	0.6159	0.5493	0.4941	0.4498
x2 = 0.8049	1337.4	1292.5	1248.9	1205.6	0.5887	0.5253	0.4729	0.431
x2 = 0.8708	1332.6	1287.5	1243	1199.3	0.5635	0.503	0.453	0.413
x2 = 0.9392	1327.7	1282.3	1236.9	1192.9	0.537	0.4794	0.4319	0.394
